Measured values as given in publication PMC7756582, “Prodrugs of γ‐Alkyl‐Modified Nucleoside Triphosphates: Improved Inhibition of HIV Reverse Transcriptase” (Angewandte Chemie (International Ed. in English), 2020).

Biological target: T1, human DNA polymerase α (Homo sapiens, UniProt P09884)
T1 construct: purchased Chimerx
T1 sequence (P09884 1-1462): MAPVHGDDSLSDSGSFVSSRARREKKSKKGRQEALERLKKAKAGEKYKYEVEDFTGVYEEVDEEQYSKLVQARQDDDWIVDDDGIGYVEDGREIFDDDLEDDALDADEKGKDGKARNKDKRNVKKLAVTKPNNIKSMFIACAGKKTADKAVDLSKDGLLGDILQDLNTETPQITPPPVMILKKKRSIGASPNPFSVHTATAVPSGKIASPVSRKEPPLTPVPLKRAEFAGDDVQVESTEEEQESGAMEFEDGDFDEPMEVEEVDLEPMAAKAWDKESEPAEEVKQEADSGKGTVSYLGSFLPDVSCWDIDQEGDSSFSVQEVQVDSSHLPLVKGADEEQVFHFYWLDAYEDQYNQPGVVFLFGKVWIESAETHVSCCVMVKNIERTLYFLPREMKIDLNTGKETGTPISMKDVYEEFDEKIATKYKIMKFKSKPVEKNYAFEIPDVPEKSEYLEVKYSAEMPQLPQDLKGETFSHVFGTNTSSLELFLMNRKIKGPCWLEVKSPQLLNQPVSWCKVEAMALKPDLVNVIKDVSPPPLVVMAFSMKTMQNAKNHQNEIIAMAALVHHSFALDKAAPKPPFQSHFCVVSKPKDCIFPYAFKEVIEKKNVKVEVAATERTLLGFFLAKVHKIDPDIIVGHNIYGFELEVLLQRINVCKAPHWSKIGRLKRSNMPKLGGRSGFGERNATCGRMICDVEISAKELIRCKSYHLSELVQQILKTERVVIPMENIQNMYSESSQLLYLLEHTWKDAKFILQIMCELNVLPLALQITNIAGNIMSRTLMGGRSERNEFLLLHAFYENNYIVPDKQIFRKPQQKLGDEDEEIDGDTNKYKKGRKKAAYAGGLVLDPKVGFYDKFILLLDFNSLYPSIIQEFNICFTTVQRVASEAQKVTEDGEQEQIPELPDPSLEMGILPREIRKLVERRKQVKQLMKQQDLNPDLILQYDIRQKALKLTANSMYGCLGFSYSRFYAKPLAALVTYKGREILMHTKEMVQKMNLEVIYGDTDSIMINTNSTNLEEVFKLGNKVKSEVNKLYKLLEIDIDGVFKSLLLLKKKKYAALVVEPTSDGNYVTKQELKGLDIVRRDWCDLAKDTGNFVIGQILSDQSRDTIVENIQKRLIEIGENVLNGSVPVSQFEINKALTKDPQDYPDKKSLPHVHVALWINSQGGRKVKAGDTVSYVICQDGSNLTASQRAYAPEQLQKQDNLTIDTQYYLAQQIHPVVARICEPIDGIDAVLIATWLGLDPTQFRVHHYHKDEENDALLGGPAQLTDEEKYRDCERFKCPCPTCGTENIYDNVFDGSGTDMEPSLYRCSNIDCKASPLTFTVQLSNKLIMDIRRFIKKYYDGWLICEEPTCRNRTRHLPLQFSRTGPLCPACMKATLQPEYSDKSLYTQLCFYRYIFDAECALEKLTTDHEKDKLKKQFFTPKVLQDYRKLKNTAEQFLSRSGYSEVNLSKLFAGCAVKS
Assay: Primer extension assay with human DNA polymerase α
Format: biochemical
Conditions: dNTPs 250 μM, Pol α 4 U, 60 min
Experimental: Two different set‐ups have been used. First, a mixture of dATP, dCTP, dGTP, and γ‐alkyl‐TTP (N*) or ‐d4TTP (T*) was used as a mixture. The results obtained from these experiments were compared to those in which just γ‐alkyl‐TTP (N) or d4TTP (T) was used. In each experiment a primer extension without added polymerase (negative control, ‐ lane) and an experiment in which all four canonical NTPs were added (positive control, +lane) were used as controls.
Anti-HIV activity assay: Inhibition of HIV-1(IIIB)- and HIV-2(ROD)-induced cytopathicity in wild-type CEM/0 and thymidine kinase-deficient CEM/TK- cell cultures was measured in microtiter 96-well plates containing ~3·105 CEM cells/mL infected with 100 CCID50 of HIV per milliliter and containing appropriate dilutions of the test compounds. After 4−5 days of incubation at 37 °C in a CO2-controlled humidified atmosphere, CEM giant (syncytium) cell formation was examined microscopically. The EC50 (50% effective concentration) was defined as the compound concentration required to inhibit HIV-induced giant cell formation by 50%. […]
2) For HIV- RT assay: The final assay solution (10 µL) consists of 50 mM Tris-HCl (pH 8.6 at 22 °C), 10 mM MgCl2, 40mM KCl, dNTPs 66 µM, HIV RT 6 U, Hybrid 0.32 µM in a reaction volume of 10 µL, incubated 37 °C for 15 min, 80 °C for 3 min; 50 mA, 45w for 4 h. […] The result was visualized by fluorescence imaging. […]

Which “primer extension by DNA polymerase α (substrate properties)” value does the source give for `Cc1cn(C2C=CC(COP(=O)(O)OP(=O)(O)OP(=O)(O)O)O2)c(=O)[nH]c1=O` (stereo not shown) [2 t, d4TTP, reference compound] here?
The value was “substrate”.
